Data published in patent US12691112B2, “FGFR tyrosine kinase inhibitors for the treatment of urothelial carcinoma” (Janssen Pharmaceutica NV, priority 2019, dated 2026).

System: subjects with metastatic or surgically unresectable urothelial cancer
[1] = all-causality, 6 mg continuous, n = 78

SMILES: COc1cc(OC)cc(N(CCNC(C)C)c2ccc3ncc(-c4cnn(C)c4)nc3c2)c1 [erdafitinib, N-(3,5-dimethoxy-phenyl)-N′-(1-methylethyl)-N-[3-(1-methyl-1H-pyrazol-4-yl)quinoxalin-6-yl]ethane-1,2-diamine]
- Treatment-related Paronychia, grade 3 (8 mg continuous, n = 99): 3 (3) no. (%)
- Treatment-related Stomatitis, any grade (8 mg continuous, n = 99): 54 (55) no. (%)
- Treatment-related Stomatitis, grade 1 (8 mg continuous, n = 99): 19 (19) no. (%)
- Treatment-related Stomatitis, grade 2 (8 mg continuous, n = 99): 26 (26) no. (%)
- Treatment-related Stomatitis, grade 3 (8 mg continuous, n = 99): 9 (9) no. (%)
- Treatment-related Vision blurred, any grade (8 mg continuous, n = 99): 16 (16) no. (%)
- Treatment-related Vision blurred, grade 1 (8 mg continuous, n = 99): 10 (10) no. (%)
- Treatment-related Vision blurred, grade 2 (8 mg continuous, n = 99): 6 (6) no. (%)
- Treatment-related Vision blurred, grade 3 (8 mg continuous, n = 99): 0 no. (%)
- Treatment-related Weight decreased, any grade (8 mg continuous, n = 99): 10 (10) no. (%)
- Treatment-related Weight decreased, grade 1 (8 mg continuous, n = 99): 5 (5) no. (%)
- Treatment-related Weight decreased, grade 2 (8 mg continuous, n = 99): 5 (5) no. (%)
- Treatment-related Weight decreased, grade 3 (8 mg continuous, n = 99): 0 no. (%)
- some type of eye disorder, regardless of relation to treatment (8 mg per day continuous): 63%
- treatment-related CSR grade ≥3 events (8 mg per day continuous): 3%
- treatment-related central serous retinopathy (CSR) (8 mg per day continuous): 21%
- treatment-related dry skin (8 mg per day continuous): 32%
- treatment-related effects on the nails (8 mg per day continuous): 52%
- treatment-related effects on the skin (8 mg per day continuous): 49%
- treatment-related hand-foot syndrome (8 mg per day continuous): 22%
- treatment-related hyperphosphatemia (8 mg per day continuous): 73%
- treatment-related nail dystrophy (8 mg per day continuous): 16%
- treatment-related onycholysis (8 mg per day continuous): 16%
- patients with grade ≥3 treatment-emergent adverse events (8 mg per day continuous group uptitrated to 9 mg per day): 68%
- grade 1 or 2 events among patients with eye disorders (8 mg per day continuous, patients with eye disorders (n=62)): 84%
- Serious treatment-emergent: Dyspnea (10 mg intermittent, n = 33): 2 (6) no. (%)
- Serious treatment-emergent: Eye disorders (10 mg intermittent, n = 33): 1 (3) no. (%)
- Serious treatment-emergent: Gastrointestinal disorders (10 mg intermittent, n = 33): 2 (6) no. (%)
- Serious treatment-emergent: Infections and infestations (10 mg intermittent, n = 33): 2 (6) no. (%)
- Serious treatment-emergent: Metabolism and nutrition disorders (10 mg intermittent, n = 33): 1 (3) no. (%)
- Serious treatment-emergent: Nervous system disorders (10 mg intermittent, n = 33): 0 no. (%)
- Serious treatment-emergent: Renal and urinary disorders (10 mg intermittent, n = 33): 1 (3) no. (%)
- Serious treatment-emergent: Respiratory, thoracic, mediastinal disorders (10 mg intermittent, n = 33): 4 (12) no. (%)
- Serious treatment-emergent: Urinary tract infection (10 mg intermittent, n = 33): 0 no. (%)
- Serious treatment-emergent: Urosepsis (10 mg intermittent, n = 33): 0 no. (%)
- Total number of patients with serious treatment-emergent adverse events (10 mg intermittent, n = 33): 14 (42) no. (%)
- Hyperphosphatemia reported (Regimen 3): 77%
- hyperphosphatemia leading to dose reduction (Regimen 3): 9%
- hyperphosphatemia managed by dose interruption (Regimen 3): 23%
- patients discontinued due to treatment-emergent adverse events (Regimen 3): 13%
- patients reporting treatment-emergent adverse events (Regimen 3): All patients
- patients who required dose reduction (Regimen 3): 56%
- patients with serious treatment-emergent adverse events (Regimen 3): 39%
- stomatitis leading to dose reduction (Regimen 3): 16%
- treatment-emergent adverse events grade 3 or 4 (Regimen 3): 67%
- patients who required ≥1 dose reduction (Regimen 3, among 41 patients uptitrated to 9 mg per day): 59%
- central serious retinopathy events resolved (all unresolved events grade 1 or 2): Seventy-six percent
- Abdominal pain, any grade [1]: 14 no.
- Abdominal pain, grade 1 [1]: 7 no.
- Abdominal pain, grade 2 [1]: 5 no.
- Abdominal pain, grade ≥ 3 [1]: 2 no.
- Alanine aminotransferase increased, any grade [1]: 9 no.
- Alanine aminotransferase increased, grade 1 [1]: 7 no.
- Alanine aminotransferase increased, grade 2 [1]: 2 no.
- Alanine aminotransferase increased, grade ≥ 3 [1]: 0 no.
- Alopecia, any grade [1]: 10 no.
- Alopecia, grade 1 [1]: 9 no.
- Alopecia, grade 2 [1]: 1 no.
- Alopecia, grade ≥ 3 [1]: 0 no.
- Anemia, any grade [1]: 13 no.
- Anemia, grade 1 [1]: 0 no.
- Anemia, grade 2 [1]: 8 no.
- Anemia, grade ≥ 3 [1]: 5 no.
- Arthralgia, any grade [1]: 8 no.
- Arthralgia, grade 1 [1]: 5 no.
- Arthralgia, grade 2 [1]: 2 no.
- Arthralgia, grade ≥ 3 [1]: 1 no.
- Aspartate aminotransferase increased, any grade [1]: 9 no.
- Aspartate aminotransferase increased, grade 1 [1]: 7 no.
- Aspartate aminotransferase increased, grade 2 [1]: 2 no.
- Aspartate aminotransferase increased, grade ≥ 3 [1]: 0 no.
- Asthenia, any grade [1]: 18 no.
- Asthenia, grade 1 [1]: 5 no.
- Asthenia, grade 2 [1]: 4 no.
- Asthenia, grade ≥ 3 [1]: 9 no.
- Back pain, any grade [1]: 11 no.
- Back pain, grade 1 [1]: 6 no.
- Back pain, grade 2 [1]: 3 no.
- Back pain, grade ≥ 3 [1]: 2 no.
- Blood creatinine increased, any grade [1]: 6 no.
- Blood creatinine increased, grade 1 [1]: 3 no.
- Blood creatinine increased, grade 2 [1]: 3 no.
- Blood creatinine increased, grade ≥ 3 [1]: 0 no.
- Conjunctivitis, any grade [1]: 7 no.
- Conjunctivitis, grade 1 [1]: 4 no.
- Conjunctivitis, grade 2 [1]: 2 no.
